The subject of data set [1] is PARP cleavage in U-87 MG cells. Description: PARP cleavage by western blot in U-87 MG cells. The format is cell-based, human. Particulars: immunoblotting. The protocol:
Western blotting was performed as previously described[68] by lysing cells in denaturing buffer sodium dodecyl sulfate (SDS)–urea. Extracts were sonicated, their protein quantified, and aliquots were loaded into an SDS–polyacrylamide gel. After electrophoresis, the proteins in the gel were transferred onto a nitrocellulose membrane (cat. no. NBA085C001EA, PerkinElmer), which then was blocked with 5% milk in TBS-T (Tris HCl with 0.1% Tween 20) and incubated with primary antibodies overnight: PARP antibody diluted 1:1000 (cat. no. 9542S CST) and actin antibody diluted 1:10,000 (cat. no. A5441, Sigma Aldrich). The next day, the membrane was extensively washed with TBS-T and incubated with horse radish peroxidase (HRP)-conjugated secondary antibodies diluted in the 5% milk solution. Detection of the HRP signal was performed using ECL (cat. no. K-12045-D50, Advansta).

Data set [2] can be described thus: Metabolic stability in human liver microsomes. The data set is classed as in vitro ADME. The protocol: Mouse (Sigma Aldrich, CD-1 male, pooled) and human microsomes (Sigma Aldrich, human, pooled) at 0.5 mg/mL were preincubated with the test compound 15 dissolved in DMSO at 1 μM in phosphate buffer 50 mM, pH 7.4, and 3 mM MgCl2 for 10 min at 37 °C. The reaction was then started by adding the cofactor mixture solution (NADP, glucose-6-phosphate, glucose-6-phosphate dehydrogenase in 2% NaHCO3). Samples were taken at 0, 10, 30, 45, and 60 min and added to acetonitrile to stop the reaction. Samples were then centrifuged, and the supernatant was analyzed by LC–MS/MS to quantify the amount of the compound. A control sample without the cofactor was always added to check the chemical stability of the test compound. […] A fixed concentration of verapamil was added in every sample as an internal standard for LC–MS/MS analyses. The percentage of the area of the test compound remaining at the various incubation times was calculated with respect to the area of the compound at time 0 min.
The rate constant, k (min^–1), derived for the exponential decay equation (peak area/IS vs time), was used to calculate the rate of Cli.
Samples were analyzed under the following conditions: UPLC Waters coupled with an API 3200 triple-quadrupole (ABSciex); eluents, (phase A) 95% water, 5% acetonitrile + 0.1% HCOOH, (phase B) 5% water, 95% acetonitrile + 0.1% HCOOH; flow rate, 0.3 mL/min; column, Gemini-Nx 5 μm C18 110A (50 × 2.00 mm) at 35 °C; injection volume, 10 μL. Source conditions ESI positive: T 400 °C, Gas 1 30, Gas 2 35, CUR 30, IS 5500, CAD 5.

For data set [3], the system named is MCF-7 human breast carcinoma cells. Description: Inhibition of the growth of MCF-7 human breast carcinoma cells. The data set is classed as cell-based. The protocol: The methodology for the evaluation of the growth of human MCF-7 breast carcinoma cells was previously described, except that cells were grown for 96 h for IC50 determinations.[66] U-87 MG and OVCAR-3 proliferation assays were performed plating 10^4 cells/cm^2 in a Multiwell 24. The day after, cells were treated with compound 15, and DMSO was used as a control. Cells were counted 48 h later with a Bürker counting chamber, after dilution in TrypanBlue (#T6146 Sigma-Aldrich).

Values joined by “and” are separate entries in the source; they are usually repeats but may differ in a detail not shown here. Equal entries are not always repeated.

Regarding `COc1cc(C(=O)c2cn(-c3ncccn3)cc2-c2ccco2)cc(OC)c1OC` [Compound 15, (4-(Furan-2-yl)-1-(pyrimidyl-2-yl)-1H-pyrrol-3-yl)(3,4,5-trimethoxyphenyl)methanone], the “concentration from which PARP cleavage occurs” value in data set [1] is on record as ≥ 20 nM. Moreover, the “Cli ± SD” value in data set [2] (HLM 0.5 mg/mL, 1 μM, n = 2) was 36 μL/min/mg protein and 35.9 ± 0.2 μL/min/mg protein. Also, the half-life at 1 h, 1 µM in data set [2] (human, liver microsomes, pH 7.4, HLM 0.5 mg/mL, 1 μM, n = 2, read-out: t1/2 ± SD) was 38.7 ± 0.2 min. Moreover, the microsomal CLint at 1 μM in data set [2] (pH 7.4, human liver microsomes, read-out: intrinsic clearance classification) lay in the range of 1.8 to 48 µL/min/mg. In addition, the “Inhibition of MCF-7 cell growth (in words)” value in data set [3] was “strong inhibition”. Also, the half-inhibitory concentration (IC50) in data set [3] (Homo sapiens, MCF7, inhibition of cell growth, cells grown for 96 h, read-out: MCF-7 IC50 ± SD) was determined as 4 ± 1 nM.

(Values after article PMC9743090, “Induction of Ferroptosis in Glioblastoma and Ovarian Cancers by a New Pyrrole Tubulin Assembly Inhibitor” (Journal of Medicinal Chemistry, 2022).)
